According to ChEMBL document CHEMBL5137131, “Mechanisms of Biochanin A Alleviating PM2.5 Organic Extracts-Induced EMT of A549 Cells through the PI3K/Akt Pathway” (J Nat Prod, 2022):
Calls of active or inactive are those of the source. The calls are words filed in the database; no cut-off is given here.

Tests used:
A549 [1] = test: Downregulation of PM2.5 induced vimentin expression in human A549 cells at 10 uM by Western blot analysis; assay type: functional, cell-based
A549 [2] = test: Downregulation of PM2.5 induced Snail expression in human A549 cells; assay type: functional, cell-based
A549 [3] = test: Inhibition of PM2.5 induced E-cadherin downregulation in human A549 cells at 10 uM by Western blot analysis; assay type: functional, cell-based
A549 [4] = test: Inhibition of PM2.5 induced Akt phosphorylation in human A549 cells at 10 uM […]; assay type: functional, cell-based
A549 [5] = test: Inhibition of PM2.5 induced PI3K upregulation in human A549 cells at 10 uM by Western blot analysis relative to control; assay type: functional
A549 [6] = test: Inhibition of PM2.5 induced PI3K expression in human A549 cells at 10 uM by qRT-PCR analysis; assay type: functional, cell-based
A549 [7] = test: Downregulation of PM2.5 induced Slug expression in human A549 cells; assay type: functional, cell-based
[8] = biological target: Serine/threonine-protein kinase AKT (Homo sapiens) (UniProt P31751+Q9Y243+P31749); test: Inhibition of PM2.5 induced Akt phosphorylation upregulation in human A549 cells at 10 uM by Western blot analysis relative to control; assay type: cell-based
Chain of Serine/threonine-protein kinase AKT (Homo sapiens) (P31749 whole entry, looked up): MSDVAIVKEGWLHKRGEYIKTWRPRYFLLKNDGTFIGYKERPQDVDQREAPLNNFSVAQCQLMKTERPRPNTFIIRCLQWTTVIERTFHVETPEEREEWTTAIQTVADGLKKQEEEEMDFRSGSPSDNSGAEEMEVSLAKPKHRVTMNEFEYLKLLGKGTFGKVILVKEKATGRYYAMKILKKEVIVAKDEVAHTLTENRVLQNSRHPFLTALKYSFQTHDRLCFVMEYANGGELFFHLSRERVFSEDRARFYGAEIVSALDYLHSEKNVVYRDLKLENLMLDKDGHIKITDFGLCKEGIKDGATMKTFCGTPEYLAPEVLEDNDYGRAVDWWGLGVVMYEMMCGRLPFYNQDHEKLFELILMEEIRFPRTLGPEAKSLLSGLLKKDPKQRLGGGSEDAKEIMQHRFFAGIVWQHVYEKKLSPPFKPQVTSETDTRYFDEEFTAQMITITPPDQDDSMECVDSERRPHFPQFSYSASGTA
Chain of Serine/threonine-protein kinase AKT (Homo sapiens) (P31751 whole entry, looked up): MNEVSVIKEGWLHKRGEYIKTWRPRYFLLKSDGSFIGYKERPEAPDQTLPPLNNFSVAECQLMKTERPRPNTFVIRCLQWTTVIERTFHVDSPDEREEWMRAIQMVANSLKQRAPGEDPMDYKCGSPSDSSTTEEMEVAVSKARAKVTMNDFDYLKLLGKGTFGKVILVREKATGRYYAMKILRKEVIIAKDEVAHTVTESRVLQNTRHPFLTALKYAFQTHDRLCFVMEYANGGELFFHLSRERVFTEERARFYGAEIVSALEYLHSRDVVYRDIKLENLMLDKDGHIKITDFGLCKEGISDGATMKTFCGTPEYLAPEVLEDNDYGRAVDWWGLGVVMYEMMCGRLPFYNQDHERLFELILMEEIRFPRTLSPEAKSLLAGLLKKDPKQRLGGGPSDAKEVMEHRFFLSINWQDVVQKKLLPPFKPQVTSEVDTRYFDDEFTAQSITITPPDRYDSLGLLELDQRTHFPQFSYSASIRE
Chain of Serine/threonine-protein kinase AKT (Homo sapiens) (Q9Y243 whole entry, looked up): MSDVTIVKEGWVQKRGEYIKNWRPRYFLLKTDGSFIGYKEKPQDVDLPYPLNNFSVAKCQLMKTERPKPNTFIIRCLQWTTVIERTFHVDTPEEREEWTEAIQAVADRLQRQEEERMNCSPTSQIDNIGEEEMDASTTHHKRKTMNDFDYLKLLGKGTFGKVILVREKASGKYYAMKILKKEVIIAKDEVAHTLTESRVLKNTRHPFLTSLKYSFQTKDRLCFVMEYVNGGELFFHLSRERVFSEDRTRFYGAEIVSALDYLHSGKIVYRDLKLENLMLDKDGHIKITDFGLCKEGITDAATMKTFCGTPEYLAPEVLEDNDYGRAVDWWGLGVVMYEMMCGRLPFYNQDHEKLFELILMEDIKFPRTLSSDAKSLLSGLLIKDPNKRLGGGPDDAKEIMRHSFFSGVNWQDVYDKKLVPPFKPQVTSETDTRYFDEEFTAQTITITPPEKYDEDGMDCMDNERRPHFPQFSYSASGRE

With `O=c1cc(N2CCOCC2)oc2c(-c3ccccc3)cccc12` [LY-294002] the Activity (A549 [1]) was “Active”, the Activity (A549 [2]) was “Active” and the inhibition (A549 [3]) was “Active”. The inhibition (A549 [4]) was “Active”, the inhibition at 10 µM (A549 [5]) was 84.3% and the inhibition (A549 [6]) was “Active”. The Activity (A549 [7]) was “Active” and the inhibition [8] was 15%.
